Experimental data published in patent US20250145665A1, “MACROCYCLIC PEPTIDES USEFUL AS MODULATORS OF TNF ALPHA” (Bristol-Myers Squibb Company, priority 2023, published 2025).
Starred links: 1 amine or outer side, 2 acyl side, 3 side chain; linkers in the order of their positions; H or OH if unused. Positions of bridges follow the written chain, without caps; N, C: chain ends. Non-standard residues stand in square brackets, D forms with d. Residues, ends and D or L forms follow the SMILES beside them. *: point of attachment. Bip(4'-NHCO-C6H4-4-CH2COOH) = N[C@@H](Cc1ccc(-c2ccc(NC(=O)c3ccc(CC(=O)O)cc3)cc2)cc1)C(=O)O; X5 = Cn1nc(C(=O)Nc2ccc(-c3ccc(C[C@H](N[*:1])C(=O)[*:2])cc3)cc2)c2ccccc21; X9 = Cn1nc(C(=O)Nc2cccc(-c3ccc(C[C@H](N[*:1])C(=O)[*:2])cc3)c2)c2cccnc21; Bip(4'-NH) = O=C([C@H](Cc1ccc(-c2ccc(N[*:3])cc2)cc1)N[*:1])[*:2]; Bip(4'-COOH) = N[C@@H](Cc1ccc(-c2ccc(C(=O)O)cc2)cc1)C(=O)O; Bip(4'-NHAc) = CC(=O)Nc1ccc(-c2ccc(C[C@H](N)C(=O)O)cc2)cc1; Ala(morpholin-4-yl) = N[C@@H](CN1CCOCC1)C(=O)O; Benzoyl(3-OCH2COOH) = O=C(O)COc1cccc(C(=O)*)c1; Benzoyl(4-OCH2COOH) = O=C(O)COc1ccc(C(=O)*)cc1; Phe(3-CONH2) = NC(=O)c1cccc(C[C@H](N)C(=O)O)c1; Bip = N[C@@H](Cc1ccc(-c2ccccc2)cc1)C(=O)O; h4Pal = N[C@@H](CCc1ccncc1)C(=O)O; X31 = Cn1c(C(=O)*)cc2cccc(Cl)c21; 2Pal = N[C@@H](Cc1ccccn1)C(=O)O; 3Pal = N[C@@H](Cc1cccnc1)C(=O)O; Tic = O=C(O)[C@@H]1Cc2ccccc2CN1; 2Thi = N[C@@H](Cc1cccs1)C(=O)O; Cha = N[C@@H](CC1CCCCC1)C(=O)O; Tle = CC(C)(C)[C@H](N)C(=O)O; Aze = O=C(O)[C@@H]1CCN1; Sar = CNCC(=O)O

Biological target: TNFα (Homo sapiens, UniProt P01375)
Sequence (P01375 77-233 limits assumed): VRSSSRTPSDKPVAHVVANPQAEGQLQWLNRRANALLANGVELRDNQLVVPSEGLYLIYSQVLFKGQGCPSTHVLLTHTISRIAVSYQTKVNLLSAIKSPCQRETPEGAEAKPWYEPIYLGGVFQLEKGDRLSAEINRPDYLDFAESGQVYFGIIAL
Assay: TNF-Induced HEK-Blue Assay
Format: cell-based
Settings: HEK-Blue-CD40L cells, NF-kB-driven secreted alkaline phosphatase reporter; TNFα 0.5 ng/ml; 18 h; read-out: TNF induced HEK-Blue assay IC50 value

IC50	Compound
< 50 nM	CC(C)C[C@@H]1NC(=O)[C@H](Cc2cnc[nH]2)NC(=O)[C@H](C(C)C)NC(=O)[C@@H]2CCCN2C(=O)[C@H](C(C)C)NC(=O)[C@@H](CCCNC(=N)N)NC(=O)[C@H](CC(=O)O)NC(=O)[C@H](Cc2cnc[nH]2)NC(=O)CN(C)C(=O)[C@H](Cc2ccc(-c3ccc(NC(=O)c4ccc(OCC(=O)O)cc4)cc3)cc2)NC(=O)[C@H](Cc2ccc(-c3ccccc3)cc2)NC(=O)[C@H](CN2CCOCC2)NC(=O)CSC[C@@H](C(=O)NCC(N)=O)NC1=O [Example 495] ({CH2CO}-[Ala(morpholin-4-yl)][Bip][Bip(4'-NH)](Benzoyl(4-OCH2COOH))[Sar]HD[dR]VPVHLCG-NH2; thioether N-13)
200 to 2000 nM	CC(C)C[C@@H]1NC(=O)[C@H](CCCNC(=N)N)NC(=O)[C@H](C(C)C)NC(=O)[C@@H]2CCCN2C(=O)[C@H](C(C)C)NC(=O)[C@H](CCCNC(=N)N)NC(=O)[C@H](CC(=O)O)NC(=O)[C@@H]2CCCN2C(=O)CN(C)C(=O)[C@H](Cc2ccc(-c3ccccc3)cc2)NC(=O)[C@H](Cc2ccc(-c3ccccc3)cc2)NC(=O)[C@H](CCc2ccncc2)NC(=O)CSC[C@@H](C(=O)NCC(N)=O)NC1=O [Example 10] ({CH2CO}-[h4Pal][Bip][Bip][Sar]PDRVPVRLCG-NH2; thioether N-13)
< 50 nM	CC[C@H](C)[C@@H]1NC(=O)[C@@H](CCCNC(=N)N)NC(=O)[C@H](CC(=O)O)NC(=O)[C@H](Cc2cnc[nH]2)NC(=O)CN(C)C(=O)[C@H](Cc2ccc(-c3ccc(NC(=O)c4cccc(OCC(=O)O)c4)cc3)cc2)NC(=O)[C@H](Cc2ccc(-c3ccc(C(=O)O)cc3)cc2)NC(=O)[C@H](CC2CCCCC2)NC(=O)CSC[C@@H](C(=O)NCC(N)=O)NC(=O)[C@H](CC(C)C)NC(=O)[C@H](Cc2cnc[nH]2)NC(=O)[C@H](C(C)C)NC(=O)[C@@H]2Cc3ccccc3CN2C1=O [Example 372] ({CH2CO}-[Cha][Bip(4'-COOH)][Bip(4'-NH)](Benzoyl(3-OCH2COOH))[Sar]HD[dR]I[Tic]VHLCG-NH2; thioether N-13)
< 50 nM	CC(C)C[C@@H]1NC(=O)[C@H](Cc2cccs2)NC(=O)[C@H](C(C)C)NC(=O)[C@@H]2CCCN2C(=O)[C@H](C(C)C)NC(=O)[C@@H](CCCNC(=N)N)NC(=O)[C@H](CC(=O)O)NC(=O)[C@H](Cc2ccccn2)NC(=O)CN(C)C(=O)[C@H](Cc2ccc(-c3ccc(NC(=O)c4cccc(OCC(=O)O)c4)cc3)cc2)NC(=O)[C@H](Cc2ccc(-c3ccccc3)cc2)NC(=O)[C@H](CN2CCOCC2)NC(=O)CSC[C@@H](C(=O)NCC(N)=O)NC1=O [Example 606] ({CH2CO}-[Ala(morpholin-4-yl)][Bip][Bip(4'-NH)](Benzoyl(3-OCH2COOH))[Sar][2Pal]D[dR]VPV[2Thi]LCG-NH2; thioether N-13)
200 to 2000 nM	CC(C)C[C@@H]1NC(=O)[C@H](Cc2ccc(O)cc2)NC(=O)[C@H](C(C)C)NC(=O)[C@@H]2CCCN2C(=O)[C@H](Cc2cccnc2)NC(=O)[C@@H](CCCNC(=N)N)NC(=O)[C@H](CC(=O)O)NC(=O)[C@H](Cc2ccc(O)cc2)NC(=O)CN(C)C(=O)[C@H](Cc2ccc(-c3ccccc3)cc2)NC(=O)[C@H](Cc2ccc(-c3ccccc3)cc2)NC(=O)[C@H](CN2CCOCC2)NC(=O)CSC[C@@H](C(=O)NCC(N)=O)NC1=O [Example 118] ({CH2CO}-[Ala(morpholin-4-yl)][Bip][Bip][Sar]YD[dR][3Pal]PVYLCG-NH2; thioether N-13)
< 50 nM	CC(C)C[C@@H]1NC(=O)[C@H](CCCNC(=N)N)NC(=O)[C@H](C(C)C)NC(=O)[C@@H]2CCCN2C(=O)[C@H](C(C)C)NC(=O)[C@@H](CCCNC(=N)N)NC(=O)[C@H](CC(=O)O)NC(=O)[C@@H]2CCCN2C(=O)CN(C)C(=O)[C@H](Cc2ccc(-c3cccc(NC(=O)c4nn(C)c5ncccc45)c3)cc2)NC(=O)[C@H](Cc2ccc(-c3ccccc3)cc2)NC(=O)[C@H](CN2CCOCC2)NC(=O)CSC[C@@H](C(=O)NCC(N)=O)NC1=O [Example 345] ({CH2CO}-[Ala(morpholin-4-yl)][Bip][X9][Sar]PD[dR]VPVRLCG-NH2; thioether N-13)
50 to 200 nM	CC[C@H](C)[C@@H]1NC(=O)[C@@H](CCCNC(=N)N)NC(=O)[C@H](CC(=O)O)NC(=O)[C@@H]2CCCN2C(=O)CN(C)C(=O)[C@H](Cc2ccc(-c3ccc(NC(=O)c4ccc(CC(=O)O)cc4)cc3)cc2)NC(=O)[C@H](Cc2ccc(-c3ccc(C(=O)O)cc3)cc2)NC(=O)[C@H](C(C)(C)C)NC(=O)CSC[C@@H](C(=O)NCC(N)=O)NC(=O)[C@H](CC(C)C)NC(=O)[C@H](Cc2cnc[nH]2)NC(=O)[C@H](C(C)C)NC(=O)[C@@H]2CCCN2C1=O [Example 576] ({CH2CO}-[Tle][Bip(4'-COOH)][Bip(4'-NHCO-C6H4-4-CH2COOH)][Sar]PD[dR]IPVHLCG-NH2; thioether N-13)
200 to 2000 nM	CC(C)C[C@@H]1NC(=O)[C@H](Cc2ccc(O)cc2)NC(=O)[C@H](C(C)C)NC(=O)[C@H](Cc2ccccn2)NC(=O)[C@H](C(C)C)NC(=O)[C@H](CCCNC(=N)N)NC(=O)[C@H](CC(=O)O)NC(=O)[C@H](Cc2ccc(O)cc2)NC(=O)CN(C)C(=O)[C@H](Cc2ccc(-c3ccccc3)cc2)NC(=O)[C@H](Cc2ccc(-c3ccccc3)cc2)NC(=O)[C@H](CN2CCOCC2)NC(=O)CSC[C@@H](C(=O)NCC(N)=O)NC1=O [Example 109] ({CH2CO}-[Ala(morpholin-4-yl)][Bip][Bip][Sar]YDRV[2Pal]VYLCG-NH2; thioether N-13)
50 to 200 nM	CC(=O)Nc1ccc(-c2ccc(C[C@@H]3NC(=O)[C@H](Cc4ccc(-c5ccccc5)cc4)NC(=O)[C@H](CN4CCOCC4)NC(=O)CSC[C@@H](C(=O)NCC(N)=O)NC(=O)[C@H](CC(C)C)NC(=O)[C@H](Cc4ccccc4)NC(=O)[C@H](C(C)C)NC(=O)[C@@H]4CCCN4C(=O)[C@H](C(C)C)NC(=O)[C@@H](CCCNC(=N)N)NC(=O)[C@H](CC(=O)O)NC(=O)[C@H](Cc4ccccn4)NC(=O)CN(C)C3=O)cc2)cc1 [Example 227] ({CH2CO}-[Ala(morpholin-4-yl)][Bip][Bip(4'-NHAc)][Sar][2Pal]D[dR]VPVFLCG-NH2; thioether N-13)
50 to 200 nM	CC[C@H](C)[C@@H]1NC(=O)[C@@H](CCCNC(=N)N)NC(=O)[C@H](CC(=O)O)NC(=O)[C@H](Cc2cnc[nH]2)NC(=O)CN(C)C(=O)[C@H](Cc2ccc(-c3ccc(NC(=O)c4cc5cccc(Cl)c5n4C)cc3)cc2)NC(=O)[C@H](Cc2ccc(-c3ccccc3)cc2)NC(=O)[C@H](CC2CCCCC2)NC(=O)CSC[C@@H](C(=O)NCC(N)=O)NC(=O)[C@H](CC(C)C)NC(=O)[C@H](Cc2cnc[nH]2)NC(=O)[C@H](C(C)C)NC(=O)[C@@H]2CCCN2C1=O [Example 326] ({CH2CO}-[Cha][Bip][Bip(4'-NH)](X31)[Sar]HD[dR]IPVHLCG-NH2; thioether N-13)
50 to 200 nM	CC[C@H](C)[C@@H]1NC(=O)[C@@H]2CCCN2C(=O)[C@H]([C@@H](C)CC)NC(=O)[C@@H](CCCNC(=N)N)NC(=O)[C@H](CC(=O)O)NC(=O)[C@H](Cc2ccccc2)NC(=O)CN(C)C(=O)[C@H](Cc2ccc(-c3ccc(NC(C)=O)cc3)cc2)NC(=O)[C@H](Cc2ccc(-c3ccc(C(=O)O)cc3)cc2)NC(=O)[C@H](CN2CCOCC2)NC(=O)CSC[C@@H](C(=O)NCC(N)=O)NC(=O)[C@H](CC(C)C)NC(=O)[C@H](Cc2cnc[nH]2)NC1=O [Example 284] ({CH2CO}-[Ala(morpholin-4-yl)][Bip(4'-COOH)][Bip(4'-NHAc)][Sar]FD[dR]IPIHLCG-NH2; thioether N-13)
< 50 nM	CC(C)C[C@@H]1NC(=O)[C@H](Cc2ccc(O)cc2)NC(=O)[C@H](C(C)C)NC(=O)[C@@H]2CCN2C(=O)[C@H](C(C)C)NC(=O)[C@@H](CCCNC(=N)N)NC(=O)[C@H](CC(=O)O)NC(=O)[C@H](Cc2ccc(O)cc2)NC(=O)CN(C)C(=O)[C@H](Cc2ccc(-c3ccccc3)cc2)NC(=O)[C@H](Cc2ccc(-c3ccccc3)cc2)NC(=O)[C@H](CN2CCOCC2)NC(=O)CSC[C@@H](C(=O)NCC(N)=O)NC1=O [Example 79] ({CH2CO}-[Ala(morpholin-4-yl)][Bip][Bip][Sar]YD[dR]V[Aze]VYLCG-NH2; thioether N-13)
< 50 nM	CC(=O)Nc1ccc(-c2ccc(C[C@@H]3NC(=O)[C@H](Cc4ccc(-c5ccc(C(=O)O)cc5)cc4)NC(=O)[C@H](CC4CCCCC4)NC(=O)CSC[C@@H](C(=O)NCC(N)=O)NC(=O)[C@H](CC(C)C)NC(=O)[C@H](Cc4cccc(C(N)=O)c4)NC(=O)[C@H](C(C)C)NC(=O)[C@@H]4CCCN4C(=O)[C@H](C(C)C)NC(=O)[C@@H](CCCNC(=N)N)NC(=O)[C@H](CC(=O)O)NC(=O)[C@H](Cc4ccc(O)cc4)NC(=O)CN(C)C3=O)cc2)cc1 [Example 252] ({CH2CO}-[Cha][Bip(4'-COOH)][Bip(4'-NHAc)][Sar]YD[dR]VPV[Phe(3-CONH2)]LCG-NH2; thioether N-13)
< 50 nM	CC[C@H](C)[C@@H]1NC(=O)[C@@H](CCCNC(=N)N)NC(=O)[C@H](CC(=O)O)NC(=O)[C@H](Cc2cnc[nH]2)NC(=O)CN(C)C(=O)[C@H](Cc2ccc(-c3ccc(NC(=O)c4cccc(OCC(=O)O)c4)cc3)cc2)NC(=O)[C@H](Cc2ccc(-c3ccccc3)cc2)NC(=O)[C@H](CN2CCOCC2)NC(=O)CSC[C@@H](C(=O)NCC(N)=O)NC(=O)[C@H](CC(C)C)NC(=O)[C@H](Cc2cnc[nH]2)NC(=O)[C@H](C(C)C)NC(=O)[C@@H]2CCCN2C1=O [Example 441] ({CH2CO}-[Ala(morpholin-4-yl)][Bip][Bip(4'-NH)](Benzoyl(3-OCH2COOH))[Sar]HD[dR]IPVHLCG-NH2; thioether N-13)

Compound	IC50
CC[C@H](C)[C@@H]1NC(=O)[C@@H](CCCNC(=N)N)NC(=O)[C@H](CC(=O)O)NC(=O)[C@H](Cc2cnc[nH]2)NC(=O)CN(C)C(=O)[C@H](Cc2ccc(-c3ccc(NC(=O)c4nn(C)c5ccccc45)cc3)cc2)NC(=O)[C@H](Cc2ccc(-c3ccc(C(=O)O)cc3)cc2)NC(=O)[C@H](CC2CCCCC2)NC(=O)CSC[C@@H](C(=O)NCC(N)=O)NC(=O)[C@H](CC(C)C)NC(=O)[C@H](Cc2cnc[nH]2)NC(=O)[C@H](C(C)C)NC(=O)[C@@H]2Cc3ccccc3CN2C1=O [Example 336] ({CH2CO}-[Cha][Bip(4'-COOH)][X5][Sar]HD[dR]I[Tic]VHLCG-NH2; thioether N-13)	< 50 nM
